Source: patent publication US8802704B2, “Oxadiazole derivatives” (Merck Serono SA, priority 2009, dated 2014)
Counter-ions that a name gives are not always drawn. Like-named read-outs stand apart in the source and are kept apart here.

What was measured:
S1P1 [1] = molecular target: T1, S1P1 (Homo sapiens, UniProt P21453); experiment: S1P1 internalization assay in S1P1-U2OS cells (cell imaging); type: cell-based; conditions: U2OS cells expressing S1P1-EGFP, 1 hour
Description: Cellular functional assays: Internalization of Sphingosine-1-phosphate receptor 1 (S1P1) in a human Cell line (U2OS) in a 384-well format using a Cell Imaging analysis.
The S1P1 internalization assay was performed in 384 well plates (Corning® 384 black with clear bottom 3712) using S1P1-U2OS cells from Biolmage (C039A), a human epithelial cell line (Human Bone Osteosarcoma Epithelial Cells). These cells expressed the human S1P1 Receptor fused to the green fluorescent protein (EGFP). A standard CMV promoter (cytomegalovirus promoter) controls the expression of S1P1-EGFP and continuous expression was maintained by addition of geneticin to the culture medium.
S1P1Receptor desensitization induced the internalization of the membrane-localized S1P1-EGFP fusion protein to endosomes, which can be monitored by cell imaging analysis. The cells are plated in low serum medium (Dulbecco's Modified Eagle Medium (DMEM) with Glutamax-1 and high glucose, 1% Penicillin/Streptomycin, 1% Fetal Calf Serum (FCS), 0.5 mg/ml Geneticin) overnight.
The next day, S1P1-U2OS cells are incubated in 20 μl serum free medium (DMEM with Glutamax-1 and high glucose, 0.1% of fatty-acid free Bovin Serum Albumin (BSA), 10 mM, N′-2-Hydroxyethylpiperazine-N′-2 ethanesulphonic acid (HEPES) 1M) for 2 hours at 37° C./5% CO2. The cells are then treated with 4 μl compounds/agonists (6×/3% DMSO) for a total volume of 24 μl, and plates are incubated for 1 hour at 37° C./5% CO2.
S1P1-U2OS cells are fixed with 25 μl Paraformaldehyde 8% and stained with Hoechst 33345 dye (1:1000) for 20 minutes.
They were then washed 3 times with Phosphate Buffered Saline (PBS) and plates are sealed. The internalization of the receptor S1P1-EGFP is measured on Cellomics by calculating the “spot count per object” (“object” corresponds to nuclear and “spot” corresponds to S1P1-EGFP receptor). Internalization data were observed thanks to vHCS View and analyzed using Genedata® software.
Target sequence in this assay (P21453 whole entry): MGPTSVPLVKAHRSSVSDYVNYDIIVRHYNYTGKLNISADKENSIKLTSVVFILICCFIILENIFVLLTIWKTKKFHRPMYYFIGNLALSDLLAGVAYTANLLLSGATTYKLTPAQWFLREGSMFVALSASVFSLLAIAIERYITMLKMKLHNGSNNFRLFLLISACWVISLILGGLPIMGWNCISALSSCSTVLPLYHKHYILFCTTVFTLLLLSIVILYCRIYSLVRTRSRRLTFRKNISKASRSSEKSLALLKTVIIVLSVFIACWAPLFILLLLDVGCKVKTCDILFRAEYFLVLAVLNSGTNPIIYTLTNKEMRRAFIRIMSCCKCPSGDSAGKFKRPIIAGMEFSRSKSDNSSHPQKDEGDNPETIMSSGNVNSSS

S1P3 = S1P3 (Homo sapiens, UniProt Q99500); experiment: Receptor binding assay, [33P]sphingosine 1-phosphate competition (SPA), S1P3
Chain of S1P3 (Q99500 whole entry, species assumed): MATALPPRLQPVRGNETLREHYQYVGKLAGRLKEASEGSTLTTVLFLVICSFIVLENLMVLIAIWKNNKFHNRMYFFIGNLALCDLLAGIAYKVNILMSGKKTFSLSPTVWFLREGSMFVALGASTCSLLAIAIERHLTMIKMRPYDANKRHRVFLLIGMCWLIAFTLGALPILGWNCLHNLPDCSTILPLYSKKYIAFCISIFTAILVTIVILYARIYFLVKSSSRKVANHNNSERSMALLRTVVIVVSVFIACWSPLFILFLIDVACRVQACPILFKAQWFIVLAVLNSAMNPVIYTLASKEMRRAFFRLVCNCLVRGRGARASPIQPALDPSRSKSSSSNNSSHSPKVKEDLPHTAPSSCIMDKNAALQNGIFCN
Description: (§1) Membranes were prepared from CHO cells expressing S1P1 or S1P3 for use in ligand and […] binding studies. Cells were suspended in 50 mM TRIS, pH 7.4, 2 mM EDTA, 250 mM Sucrose (buffer A) and 1× Complete protease inhibitor cocktail (Roche), and disrupted at 4° C. by N2 decompression using a cell disruption bomb (Parr Instrument). Following centrifugation at 1000 RPM for 10 min at 4° C., the supernatant was diluted (2×) in buffer A and centrifuged again at 19000 RPM for 75 min at 4° C. The pellet was then suspended in 10 mM HEPES, pH 7.4, 1 mM EDTA, 250 mM Sucrose (Buffer B), and 1× Complete EDTA-free protease inhibitor cocktail and homogenized using a potter. Membranes were flash frozen in liquid N2 and stored at −80° C.
[33P]sphingosine 1-phosphate (3000 Ci/mmol; American Radiolabeled Chemicals, Inc.) was added to test compounds in 20% DMSO by competition. Membranes and WGA SPA beads (GE Healthcare) were added to give a final volume of 100 μl in 96-well plates or 50 μl in 384-well plates with assay concentrations of 30 pM or 15 pM [33P]sphingosine 1-phosphate (respectively for S1P1 or S1P3), 50 mM HEPES, pH 7.5, 5 mM MgCl2, 100 mM NaCl, 0.4% fatty acid-free BSA, 1-5 μg/well of proteins in 96-well plates vs 0.6-1 μg/well of proteins in 384-well plates and 100 μg/well of WGA SPA beads in 96-well plates vs 75 μg/well of WGA SPA beads in 384-well plates. Binding was performed for 60 min at RT on a shaker and bound radioactivity was measured on a PerkinElmer 1450 MicroBeta counter. Triplicate samples were averaged and normalized as percentage of inhibition relative to total binding (only DMSO in well) and non-specific binding (1000-fold excess of unlabeled S1P). Binding data were analyzed using the GraphPad Prism program or Genedata software.

S1P1 [2] = molecular target: T1, S1P1; experiment: Receptor binding assay, [33P]sphingosine 1-phosphate competition (SPA), S1P1
Description: Cells were suspended in 50 mM TRIS, pH 7.4, 2 mM EDTA, 250 mM Sucrose (buffer A) and 1× Complete protease inhibitor cocktail (Roche), and disrupted at 4° C. by N2 decompression using a cell disruption bomb (Parr Instrument). […] The pellet was then suspended in 10 mM HEPES, pH 7.4, 1 mM EDTA, 250 mM Sucrose (Buffer B), and 1× Complete EDTA-free protease inhibitor cocktail and homogenized using a potter. Membranes were flash frozen in liquid N2 and stored at −80° C.
[33P]sphingosine 1-phosphate (3000 Ci/mmol; American Radiolabeled Chemicals, Inc.) was added to test compounds in 20% DMSO by competition. […] Triplicate samples were averaged and normalized as percentage of inhibition relative to total binding (only DMSO in well) and non-specific binding (1000-fold excess of unlabeled S1P). Binding data were analyzed using the GraphPad Prism program or Genedata software.
Target sequence in this assay (P21453 whole entry, species assumed): as the sequence (P21453 whole entry) above

S1P1 [3] = molecular target: T1, S1P1; experiment: 35S-GTPγS binding on membranes from CHO cells expressing S1P1; type: biochemical; conditions: read-out: S1P1/GTPG EC50
Description: as §1
Target sequence in this assay (P21453 whole entry, species assumed): as the sequence (P21453 whole entry) above
Membranes (1 to 10 μg protein) prepared as described above, were incubated in 96-well Scintiplates (PerkinElmer) with test compounds diluted in DMSO, in 140 μl of 20 mM HEPES, pH 7.4, 10 mM MgCl2, 2 μg/well Saponin, 0.2% fatty acid free BSA (Assay buffer), 125 mM NaCl and 1.5 μM GDP. […] Supernatant was discarded and membrane bound radioactivity was measured on a PerkinElmer 1450 MicroBeta counter. Triplicate samples were averaged and expressed as % response relative to S1P activation in absence of compound (n=2).
The “potency” or the “activity” of the compounds is determined by the EC50 values as evaluated in the above described 35S-GTPγS binding assay.

lymphocytes = experiment: Model of S1P agonists-induced lymphopenia in mice; type: in vivo; conditions: oral route
Description: (§2) Female C57BL/6 mice (Elevage Janvier) (8 week old) receive S1P agonists by oral route. Blood is sampled in heparinized (100 IU/kg, ip) mice by intracardiac or retroorbital puncture under isoflurane anesthesia 2 to 120 hrs after drug treatment. The white blood cells (lymphocytes and neutrophils) are counted using a Beckman/Coulter counter. The quality of blood sampling is assessed by counting erythocytes and platelets.

[4] = Pharmacokinetics (PK parameters from lymphopenia, mouse); type: in vivo; conditions: PK-PD (30 mpk)
Description: as §2
The pharmacoinetic properties of compound of example 70, N-(2-fluoro-4-{5-[2′-methyl-2-(trifluoromethyl)biphenyl-4-yl]-1,2,4-oxadiazol-3-yl}benzyl)-N-methylglycine, are the following: […]

[5] = 96 well-plate, read-out: S1P3 binding Ki (M) (96 well-plate)
[6] = 384 well-plate, read-out: S1P3 binding Ki (M) (384 well-plate)
[7] = 96 well-plate, read-out: S1P1 binding Ki (M) (96 well-plate)
[8] = 384 well-plate, read-out: S1P1 binding Ki (M) (384 well-plate)
[9] = female, C57BL/6, plasma, po, 30 mg/kg

| melting point [°C] | EC50 (S1P1 [1]) [nM] | Ki (S1P3; [6]) [M] | Ki (S1P1 [2]; [8]) [M] | SMILES | other results |
| --- | --- | --- | --- | --- | --- |
| 207 | – | – | – | COCc1cc(-c2nc(-c3cccc(CN(C)CC(=O)O)c3)no2)ccc1-c1ccccc1C(F)(F)F (as salt: hydrochloride) [Example 49, N-(3-{5-[2-(methoxymethyl)-2′-(trifluoromethyl)biphenyl-4-yl]-1,2,4-oxadiazol-3-yl}benzyl)-N-methylglycine] | – |
| – | 8.75 | 1.68e-07 | 1.93e-09 | Cc1ccccc1-c1ccc(-c2nc(-c3cccc(CN(C)CC(=O)O)c3)no2)cc1C(F)(F)F [Example 14, N-methyl-N-(3-{5-[2′-methyl-2-(trifluoromethyl)biphenyl-4-yl]-1,2,4-oxadiazol-3-yl}benzyl)glycine] | Ki (S1P3; [5]): 2.36e-07 M; Ki (S1P1 [2]; [7]): 4.47e-10 M; EC50 (S1P1 [3]): 1.24 nM |
| 210 | – | – | – | CCOc1cc(-c2nc(-c3ccc(CN(C)CC(=O)O)cc3)no2)ccc1-c1ccccc1C(F)(F)F (as salt: hydrochloride) [Example 115, N-(4-{5-[2-ethoxy-2′-(trifluoromethyl)biphenyl-4-yl]-1,2,4-oxadiazol-3-yl}benzyl)-N-methylglycine] | – |
| 183 | – | – | – | Cc1ccccc1-c1ccc(-c2nc(-c3ccc(CN(C)CC(=O)O)c(F)c3)no2)cc1C(F)(F)F (as salt: hydrochloride) [Example 70, N-(2-fluoro-4-{5-[2′-methyl-2-(trifluoromethyl)biphenyl-4-yl]-1,2,4-oxadiazol-3-yl}benzyl)-N-methylglycine] | – |
| – | 13 | 4.11e-07 | 2.19e-09 | Cc1ccccc1-c1ccc(-c2nc(-c3ccc(CN(C)CC(=O)O)c(F)c3)no2)cc1C(F)(F)F [Example 70, N-(2-fluoro-4-{5-[2′-methyl-2-(trifluoromethyl)biphenyl-4-yl]-1,2,4-oxadiazol-3-yl}benzyl)-N-methylglycine] | % of lymphopenia in mouse at 48 h (lymphocytes): 72 +/− 8%; Ki (S1P3; [5]): 4.43e-07 M; Ki (S1P1 [2]; [7]): 6.81e-10 M; Lymphe node/plasma ratio: 24 h ([4]; 24 h): 4.4; Lymphe node/plasma ratio: 48 h ([4]; 48 h): 4.0; Kp ([4]; female, C57BL/6, brain, oral, 30 mg/kg, ratio of AUCZ, read-out: Brain/plasma ratio: AUCZ (h * ng/ml)): 2.4; AUC(0-inf) [4, 9]: 104 µg·h/mL; CL/F [4, 9]: 5 mL/min/kg; Cmax [4, 9]: 8780 ng/mL; Tmax [4, 9]: 2 h; half-life [4, 9]: 7.5 h |
| 212 | – | – | – | CN(CC(=O)O)Cc1cc(F)cc(-c2noc(-c3ccc(-c4ccccc4C(F)(F)F)c(Cl)c3)n2)c1 (as salt: hydrochloride) [Example 136, N-(3-{5-[2-chloro-2′-(trifluoromethyl)biphenyl-4-yl]-1,2,4-oxadiazol-3-yl}-5-fluorobenzyl)-N-methylglycine] | – |
| 207 | – | – | – | Cc1cc(-c2nc(-c3cc(F)cc(CN(C)CC(=O)O)c3)no2)ccc1-c1ccccc1C(F)(F)F (as salt: hydrochloride) [Example 104, N-(3-fluoro-5-{5-[2-methyl-2′-(trifluoromethyl)biphenyl-4-yl]-1,2,4-oxadiazol-3-yl}benzyl)-N-methylglycine] | – |
| – | 26.1 | 4.79e-07 | 5.16e-09 | COCCN(CC(=O)O)Cc1ccc(-c2noc(-c3ccc(-c4ccccc4C)c(C(F)(F)F)c3)n2)cc1 [Example 138, N-(2-methoxyethyl)-N-(4-{5-[2′-methyl-2-(trifluoromethyl)biphenyl-4-yl]-1,2,4-oxadiazol-3-yl}benzyl)glycine] | – |
